# According to patent publication US20240018120A1, “MAGL INHIBITORS” (H. LUNDBECK A/S, priority 2020, published 2024):
# What was measured:
# [1] = tested on: cryopreserved human hepatocytes; experiment: In vitro human hepatocyte stability; format: in vitro ADME; details: human hepatocytes 0.5×10^6 cells/mL, 1 μM
# Method: The metabolic stability of test articles (1 μM) in commercially sourced, pooled donor, cryopreserved human hepatocytes (0.5×10^6 cells/mL) was determined in duplicate. The CLint reactions (250 μL) were initiated by addition of test compound. Aliquots (25 μL) were taken at 0, 15, 30, 45, 60, 90, 120 and 240 minutes and then protein crashed with ice-cold acetonitrile containing internal standard then centrifuged (3220 g for 25 minutes). Supernatant was used for LC-MS/MS analysis. The in vitro half-life (in vitro t½) was determined from the slope value: in vitro t1/2=−0.693/k. Conversion of the in vitro t1/2 (in min) into the scale-up unbound intrinsic clearance (Scaled-up unbound CLint, in mL/min/kg) was done using the following equation (mean of duplicate determinations), with data shown in Table 5: Scaled-up unbound CLint=kV/N×scaling factor. V=incubation volume (0.25 mL); N=number of hepatocytes per well ([…]). Scaling factors for in vivo intrinsic clearance prediction are listed below: […]
# [2] = tested on: rat formalin paw model of inflammatory pain; experiment: Rat formalin paw model of inflammatory pain; format: in vivo; details: 0.6 mg/kg, 3 mg/kg and 10 mg/kg oral, 4 h pre-test; early and/or late phases; vs vehicle
# Method: In the rat formalin paw model formalin is administered into the right […] of a rat in order to induce pain (observed by hind limb licking duration and frequency).
# Male Sprague Dawley rats were divided into three cohorts to enable testing in the Laboras™ equipment to be carried out over three days in a balanced design to give treatment groups of 10. On the day of the study, male Sprague Dawley rats were weighed, tail marked and dosed orally with vehicle, test compound (0.1, 0.3, 0.6, 1, 3 or 10 mg/kg) or pregabalin (30 mg/kg) 4 h pre-test using a 5 mL/kg dosing volume. For Example 6 the vehicle used was 0.5% methylcellulose in water and for Example 8 the vehicle used was 20% HP-b-CD. Up to six animals were dosed at a time. After 4 h, rats received an intraplantar injection of 50 μL of a 2.5% v/v formalin solution into the right hind paw. Rats were immediately placed into the Laboras™ cages and data acquisition started. The primary measures recorded by Laboras™ for the formalin paw model are hind limb licking duration and frequency. Locomotion is also reported as maximum speed, average speed when moving or over the whole-time bin and distance travelled. After 40 min, when data acquisition was complete, rats were removed from the cages.
# On removal from the test cages, rats were anaesthetised with the gaseous anaesthetic isoflurane (5% v/v isoflurane in oxygen) and blood samples were collected by cardiac puncture. Brains were then removed, rinsed in phosphate buffered saline (PBS), hemi-sected and frozen separately in liquid nitrogen.
# Data were analysed with Statistica software (TIBCO, USA version 11.1). All data are expressed as means±standard error of the mean (sem) to one decimal place. […] Time course data were analysed by repeated measures analysis of variance (ANOVA) followed by one-way ANOVAs at each time point and subsequent Dunnett's post hoc tests. […]
# [3] = biological target: T1, MAGL (Homo sapiens, UniProt Q99685); experiment: In vitro competitive activity-based protein profiling, PC3 human cell membrane proteomes; format: biochemical; set-up: endogenous in cells; host or cells: PC3 human cells (membrane proteome); details: human PC3 membrane proteome
# T1 sequence (Q99685 1-303): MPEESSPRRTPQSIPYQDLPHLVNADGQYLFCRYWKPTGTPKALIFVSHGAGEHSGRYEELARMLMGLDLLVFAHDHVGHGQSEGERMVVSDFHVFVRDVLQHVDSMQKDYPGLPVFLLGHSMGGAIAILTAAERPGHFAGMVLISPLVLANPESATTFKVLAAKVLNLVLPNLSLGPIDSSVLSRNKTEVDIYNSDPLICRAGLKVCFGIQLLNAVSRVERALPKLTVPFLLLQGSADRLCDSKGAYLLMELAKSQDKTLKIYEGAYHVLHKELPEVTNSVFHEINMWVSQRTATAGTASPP
# Summary of the method: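 Competitive ABPP in PC3 membrane proteome (2.0 mg/mL protein): inhibitors preincubated 30 min at 37° C, then JW912-Bodipy probe added for 30 min at room temperature. MAGL band fluorescence after SDS-PAGE normalised to DMSO; IC50 from 4-parameter sigmoidal fit.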
# [4] = biological target: T1, MAGL; experiment: In vitro competitive substrate hydrolysis enzyme activity assay (pNPA), HEK293 cell lysates; format: biochemical; set-up: expressed in transfected cells; host or cells: HEK293; details: HEK293 lysate
# Summary of the method: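 Lysates of HEK293 cells expressing human MAGL (~1.2 μg protein) preincubated 30 min at 25° C with inhibitor in 50 mM HEPES pH 7.0, 200 mM KCl, 1 mM EDTA. pNPA substrate then added (2× stock 2.5 mM), and A405 followed for 20 min at 25° C. Rates normalized to DMSO, and IC50 from 4-parameter fit.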
compound,measurement,setting,value
"O=C(Nc1cccnn1)[C@H]1CC12CCN(C(=O)OC(C(F)(F)F)C(F)(F)F)CC2 [Example 6, 1,1,1,3,3,3-Hexafluoropropan-2-yl (S)-1-(pyridazin-3-ylcarbamoyl)-6-azaspiro[2.5]octane-6-carboxylate]",Scaled-up unbound CLint,[1],5.79 mL/min/kg
same,measure of spontaneous pain (hind limb licking frequency),[2],statistically significant reduction
same,IC50,[3],0.0046 µM
same,IC50,[4],0.00826 µM
